Laboratory results reported in article PMC7272617 (Scientific Reports, 2020).
Converted amounts (≈) assume the structure as drawn. Where a SMILES comes first, the peptide text is derived from it.

How the values were obtained:
[1] = tested on: MDR P. aeruginosa clinical isolate No.14; settings: MDR clinical isolate No.14, 24 h
[2] = tested on: MDR P. aeruginosa clinical isolate No.1
[3] = tested on: MDR P. aeruginosa clinical isolate No.6; settings: MDR clinical isolate No.6, 24 h
[4] = tested on: human red blood cells (hRBCs); test: Hemolytic activity, hemoglobin release
Procedure: Hemolytic activity of the peptides was assayed against human red blood cells (hRBCs) by measuring the amount of hemoglobin released after treatment. The hRBCs, freshly collected from a healthy volunteer in polycarbonate tubes containing heparin, were washed three times in sterile phosphate buffered saline (PBS) and centrifuged at 2,000 × g for 5 min or until the supernatant became clear. […] After 1 h of incubation at 37 °C, intact hRBCs were pelleted by centrifugation at 2,000 × g for 10 min. The supernatant was transferred to a new 96-well plate and the release of hemoglobin was monitored by measurement of absorbance at 405 nm using a Multiskan FC microplate reader. The hRBCs in PBS only (ODBlank) and in 0.1% Triton X-100 (ODTriton X-100) were employed as negative (0% hemolysis) and positive (100% hemolysis) controls, respectively. The percentage of hemolysis was calculated according to the following equation: %Hemolysis=(ODSample−ABlank)/(ODTritonX−100−ODBlank)×100

[5] = tested on: L929 mouse fibroblast cells; test: Cytotoxicity, MTT viability assay; settings: 3.91 µg/ml, 24 h
P. aeruginosa ATCC 27853 = test: Salt sensitivity: MIC in the presence of physiological salts; assay type: cell-based, Pseudomonas aeruginosa
Procedure: The antimicrobial activity of the peptides was determined against both Gram-positive and -negative bacteria including 14 MDR P. aeruginosa clinical isolates from Bhumibol Adulyadej Hospital (Tables 1 and 3). The minimal inhibitory concentration (MIC) of each peptide was measured according to a modification of the National Committee for Clinical Laboratory Standards (NCCLS) broth microdilution method as previously described. Briefly, bacterial cells in mid-log phase were cultured in Müeller-Hinton broth (MHB) and then diluted to 10^7 CFU/ml. Fifty microliters of 2-fold serially diluted peptides, with concentrations ranging from 0.98 to 250 μg/ml in 0.01% (vol/vol) acetic acid and 0.2% (wt/vol) bovine serum albumin (BSA, Sigma), were added to each well of sterile 96-well plates, followed by 50 μl of bacterial solution. Plates were incubated at 37 °C for 24 h, and MICs were defined as the lowest concentration of peptide that prevented visible turbidity. Cultures without peptides and uninoculated MHB were employed as positive and negative controls, respectively. Colony count assays were performed to determine the minimal bactericidal concentrations (MBCs) for determination of time-killing activity. As previously described, a 50 μl aliquot from each non-turbid well identified in the MIC determination experiment was spread on agar plates. MBCs were defined as the lowest concentration of peptides where no colony growth was observed on agar plates after 24 h incubation at 37 °C.
To test the effect of salts on the antibacterial activity of PA-13, the mid-logarithmic phase (10^7 CFU/ml) of P. aeruginosa ATCC 27853 was exposed to different concentrations of PA-13 in the presence of different physiological salts: 150 mM NaCl; 4.5 mM KCl; 1 mM MgCl2; 6 µM NH4Cl; 8 µM ZnCl2; 4 µM FeCl3; […][22]. After these treatments, the MICs were determined as described above.

[6] = tested on: all Gram-positive strains; test: Mean MIC and therapeutic index, Gram-positive strains; assay type: cell-based; settings: 5 Gram-positive strains of Table 3
[7] = tested on: Bacillus cereus ATCC 11778; settings: ATCC 11778, 24 h
[8] = tested on: MDR P. aeruginosa clinical isolate No.8; settings: MDR clinical isolate No.8, 24 h
[9] = tested on: Escherichia coli O157:H7 MT strain; settings: E. coli O157:H7 MT strain; MHB, 37 °C, 24 h
human TLR4 (hTLR4) = test: LPS-mediated TLR4 activation, HEK-Blue hTLR4 SEAP reporter; assay type: cell-based; settings: 250 ng/ml LPS of P. aeruginosa serotype 10, 0.98-250 µg/ml peptide, 16 h; result in words
Procedure: Stimulation with LPS activates NF-kB and AP-1, inducing the production of SEAP. Opposing this, the peptide can interact with LPS and inhibit TLR4 signal transduction, and so decrease production of SEAP. The hydrolysis of substrate by SEAP produces a purple/blue color.
Briefly, HEK-Blue hTLR4 cells (3 × 10^4 cells/well) were seeded in 96-well plates and incubated at 37 °C in an air atmosphere containing 5% CO2 for 24 h. These cells were further incubated with 250 ng/ml LPS of P. aeruginosa serotype 10 (Sigma) and different concentrations of PA-13 (0.98-250 µg/ml) for 16 h. After incubation, supernatants were collected and incubated with QUANTI-Blue™ (InvivoGen). The absorbance of SEAP was monitored at 620 nm. The results were calculated from at least three independent experiments.

Q: With `CC[C@H](C)[C@H](NC(=O)[C@H](CCCNC(=N)N)NC(=O)[C@H](CCCCN)NC(=O)[C@H](C)NC(=O)[C@@H](NC(=O)[C@@H](N)CCCCN)[C@@H](C)CC)C(=O)N[C@@H](Cc1c[nH]c2ccccc12)C(=O)N[C@@H](CCCCN)C(=O)N[C@H](C(=O)N[C@@H](CC(C)C)C(=O)N[C@@H](CCCNC(=N)N)C(=O)N[C@@H](CCCNC(=N)N)C(=O)N[C@@H](CCCNC(=N)N)C(N)=O)[C@@H](C)CC` [PA-13] (H-KIAKRIWKILRRR-NH2; N-terminus assumed) as the molecule, how does the MIC [1] read?
A: 7.81 µg/mL (≈ 4.5 µM)

Q: What about the MIC [2] of the same molecule?
A: 3.91 µg/mL (≈ 2.25 µM)

Q: And the MIC [3]?
A: 7.81 µg/mL (≈ 4.5 µM)

Q: And the “hemolytic activity at the MIC” value [4]?
A: less than 2%

Q: What about the “L929 cell survival at the MIC” value [5] of the same molecule?
A: up to 90%

Q: And the MIC in the presence of FeCl3 (P. aeruginosa ATCC 27853; 4 µM FeCl3, unit inferred)?
A: 3.91 µg/mL

Q: What about the MIC in the presence of NH4Cl (P. aeruginosa ATCC 27853; 6 µM NH4Cl, unit inferred) of the same molecule?
A: 3.91 µg/mL

Q: What about the MIC in the presence of ZnCl2 (P. aeruginosa ATCC 27853; 8 µM ZnCl2, unit inferred) of the same molecule?
A: 3.91 µg/mL

Q: And the MIC in the presence of MgCl2 (P. aeruginosa ATCC 27853; 1 mM MgCl2, unit inferred)?
A: 31.2 µg/mL

Q: What about the “increase of MIC in the presence of K+” value (P. aeruginosa ATCC 27853; 4.5 mM KCl versus control) of the same molecule?
A: 2 fold

Q: What about the MIC in the presence of KCl (P. aeruginosa ATCC 27853; 4.5 mM KCl, unit inferred) of the same molecule?
A: 7.81 µg/mL

Q: What about the MIC in the presence of NaCl (P. aeruginosa ATCC 27853; 150 mM NaCl, unit inferred) of the same molecule?
A: 31.2 µg/mL

Q: And the MIC in the presence of CaCl2 (P. aeruginosa ATCC 27853; […] CaCl2, unit inferred)?
A: 3.91 µg/mL

Q: What about the MIC, control (P. aeruginosa ATCC 27853; absence of physiological salts, unit inferred) of the same molecule?
A: 3.91 µg/mL

Q: What about the “GM (Gr.+ strains): geometric mean of MIC values from all Gram-positive strains” value [6] of the same molecule?
A: 67.19 µg/mL

Q: What about the MIC [7] of the same molecule?
A: 15.63 µg/mL (≈ 9 µM)

Q: And the MIC [8]?
A: 7.81 µg/mL (≈ 4.5 µM)

Q: What about the MIC [9] of the same molecule?
A: 31.25 µg/mL (≈ 18 µM)

Q: What about the “inhibition of LPS-mediated TLR4 activation” value (human TLR4 (hTLR4)) of the same molecule?
A: dose-dependent inhibition
